Results reported in US10668040B2, “Treatment of urea cycle disorders in neonates and infants” (Horizon Therapeutics, LLC, priority 2017, dated 2020).

Test system: UCD patients
Test: Example 3: TEAEs, serious and non-serious adverse events
Format: in vivo
From the text: Sixteen newborn infants aged 0 to 27 days, and 10 infants and toddlers aged 28 days to 23 months received RAVICTI Oral Liquid administered just prior to breastfeeding or intake of formula or food. The recommended dosing regimen was 3-6 times per day depending on feeding schedule.
Number of Subjects with Treatment-Emergent Adverse Events (TEAEs), Serious TEAEs, Deaths, and Discontinuations Due to TEAEs
An adverse event (AE) is any untoward medical occurrence, whether or not the event is considered related to the study drug. A serious AE is any AE that: results in death; is life threatening; requires hospitalization or prolongation of existing hospitalization; results in disability/incapacity; is a congenital anomaly/birth defect; is an important medical event. TEAEs are defined as AEs with an onset date on or after the first dose of study medication until study discontinuation. The Investigator assessed the causal relationship of each TEAE to the study drug as not related, possibly related, or probably related. From the first dose of study treatment through 30 days after the final dose (mean [SD] duration of treatment was 9.13 [6.838] months).

[1] = Non-serious adverse events, Age 0 to <2 Months
[2] = Non-serious adverse events, Age 2 Months to <2 Years
[3] = aged 0 to 2 months, 16 analyzed
[4] = aged 2 months and up to 2 years, 10 analyzed

## O=C(CCCc1ccccc1)OCC(COC(=O)CCCc1ccccc1)OC(=O)CCCc1ccccc1 [RAVICTI, benzenebutanoic acid, 1′,1″-(1,2,3-propanetriyl) ester]
[1]
  Irritability, Occurrences (all): 1
  Lethargy, Occurrences (all): 1
  Leukocytosis, Occurrences (all): 1
  Lower respiratory tract infection, Occurrences (all): 1
  Lymphocytosis, Occurrences (all): 1
  Medical device site haemorrhage, Occurrences (all): 1
  Metabolic acidosis, Occurrences (all): 2
  Microcytic anaemia, Occurrences (all): 1
  Musculoskeletal and connective tissue Disorders (Torticollis), Occurrences (all): 1
  Nail ridging, Occurrences (all): 0
  Nasal congestion, Occurrences (all): 2
  Nasopharyngitis, Occurrences (all): 7
  Nephrolithiasis, Occurrences (all): 1
  Neutropenia, Occurrences (all): 1
  Ocular hyperaemia, Occurrences (all): 1
  Oral candidiasis, Occurrences (all): 2
  Oropharyngeal pain, Occurrences (all): 2
  Otitis media acute, Occurrences (all): 1
  Otitis media, Occurrences (all): 1
  Pharyngitis, Occurrences (all): 0
  Plagiocephaly, Occurrences (all): 2
  Platelet count increased, Occurrences (all): 1
  Pneumonia, Occurrences (all): 0
  Pneumothorax, Occurrences (all): 1
  Post-tussive vomiting, Occurrences (all): 1
  Protein deficiency, Occurrences (all): 2
  Pyrexia, Occurrences (all): 3
  Rash, Occurrences (all): 6
  Red man syndrome, Occurrences (all): 1
  Respiratory disorder, Occurrences (all): 0
  Respiratory syncytial virus infection, Occurrences (all): 1
  Rhinorrhoea, Occurrences (all): 0
  Rhinovirus infection, Occurrences (all): 1
  Seborrhoeic dermatitis, Occurrences (all): 2
  Sinusitis, Occurrences (all): 1
  Stoma site reaction, Occurrences (all): 1
  Tachypnoea, Occurrences (all): 1
  Teething, Occurrences (all): 3
  Thrombocytopenia, Occurrences (all): 2
  Thrombocytosis, Occurrences (all): 2
  Tibia fracture, Occurrences (all): 0
  Transaminases increased, Occurrences (all): 1
  Tremor, Occurrences (all): 1
  Upper respiratory tract infection, Occurrences (all): 7
  Urinary tract infection, Occurrences (all): 2
  Use of accessory respiratory muscles, Occurrences (all): 1
  Vascular disorders (Venous thrombosis limb), Occurrences (all): 0
  Vesicoureteric reflux, Occurrences (all): 0
  Viral infection, Occurrences (all): 1
  Vomiting, Occurrences (all): 12
  Weight decreased, Occurrences (all): 1
[2]
  Agitation, Occurrences (all): 0
  Alanine aminotransferase increased, Occurrences (all): 0
  Amino acid level decreased, Occurrences (all): 1
  Amino acid level increased, Occurrences (all): 0
  Ammonia increased, Occurrences (all): 1
  Anaemia, Occurrences (all): 1
  Angular cheilitis, Occurrences (all): 0
  Anion gap increased, Occurrences (all): 0
  Apnoea, Occurrences (all): 1
  Arthropod bite, Occurrences (all): 0
  Aspartate aminotransferase increased, Occurrences (all): 0
  Blood bicarbonate decreased, Occurrences (all): 0
  Blood urea decreased, Occurrences (all): 0
  Body height below normal, Occurrences (all): 0
  Candida infection, Occurrences (all): 0
  Carbon dioxide decreased, Occurrences (all): 1
  Cardiac disorders (Tachycardia), Occurrences (all): 0
  Catheter site rash, Occurrences (all): 0
  Conjunctivitis, Occurrences (all): 1
  Constipation, Occurrences (all): 2
  Cough, Occurrences (all): 2
  Croup infectious, Occurrences (all): 1
  Dacryostenosis congenital, Occurrences (all): 1
  Decreased appetite, Occurrences (all): 0
  Dehydration, Occurrences (all): 0
  Dermatitis diaper, Occurrences (all): 1
  Device occlusion, Occurrences (all): 0
  Diarrhoea, Occurrences (all): 1
  Drug withdrawal syndrome, Occurrences (all): 0
  Dysphagia, Occurrences (all): 0
  Ear and labyrinth disorders (Excessive cerumen production), Occurrences (all): 1
  Ear infection, Occurrences (all): 0
  Eczema, Occurrences (all): 1
  Eye discharge, Occurrences (all): 0
  Feeding disorder of infancy or early childhood, Occurrences (all): 0
  Flatulence, Occurrences (all): 0
  Gamma-glutamyltransferase increased, Occurrences (all): 0
  Gastroenteritis, Occurrences (all): 2
  Gastrointestinal viral infection, Occurrences (all): 0
  Gastrooesophageal reflux disease, Occurrences (all): 0
  Gross motor delay, Occurrences (all): 1
  Hepatic enzyme increased, Occurrences (all): 0
  Hepatobiliary disorders (Hepatic calcification), Occurrences (all): 0
  Hyperammonaemia, Occurrences (all): 0
  Hypophagia, Occurrences (all): 3
  Immune System Disorders (Seasonal allergy), Occurrences (all): 1
  Irritability, Occurrences (all): 0
  Lethargy, Occurrences (all): 0
  Leukocytosis, Occurrences (all): 0
  Lower respiratory tract infection, Occurrences (all): 0
  Lymphocytosis, Occurrences (all): 0
  Medical device site haemorrhage, Occurrences (all): 0
  Metabolic acidosis, Occurrences (all): 2
  Microcytic anaemia, Occurrences (all): 0
  Musculoskeletal and connective tissue Disorders (Torticollis), Occurrences (all): 0
  Nail ridging, Occurrences (all): 1
  Nasal congestion, Occurrences (all): 1
  Nasopharyngitis, Occurrences (all): 2
  Nephrolithiasis, Occurrences (all): 0
  Neutropenia, Occurrences (all): 0
  Ocular hyperaemia, Occurrences (all): 0
  Oral candidiasis, Occurrences (all): 0
  Oropharyngeal pain, Occurrences (all): 0
  Otitis media acute, Occurrences (all): 0
  Otitis media, Occurrences (all): 2
  Pharyngitis, Occurrences (all): 1
  Plagiocephaly, Occurrences (all): 0
  Platelet count increased, Occurrences (all): 0
  Pneumonia, Occurrences (all): 1
  Pneumothorax, Occurrences (all): 0
  Post-tussive vomiting, Occurrences (all): 0
  Protein deficiency, Occurrences (all): 0
  Pyrexia, Occurrences (all): 2
  Rash, Occurrences (all): 3
  Red man syndrome, Occurrences (all): 0
  Respiratory disorder, Occurrences (all): 1
  Rhinorrhoea, Occurrences (all): 1
  Seborrhoeic dermatitis, Occurrences (all): 1
  Sinusitis, Occurrences (all): 2
  Stoma site reaction, Occurrences (all): 1
  Tachypnoea, Occurrences (all): 0
  Teething, Occurrences (all): 1
  Thrombocytopenia, Occurrences (all): 0
  Thrombocytosis, Occurrences (all): 0
  Tibia fracture, Occurrences (all): 1
  Transaminases increased, Occurrences (all): 0
  Tremor, Occurrences (all): 0
  Upper respiratory tract infection, Occurrences (all): 6
  Urinary tract infection, Occurrences (all): 1
  Use of accessory respiratory muscles, Occurrences (all): 0
  Vascular disorders (Venous thrombosis limb), Occurrences (all): 2
  Vesicoureteric reflux, Occurrences (all): 1
  Viral infection, Occurrences (all): 1
  Vomiting, Occurrences (all): 5
  Weight decreased, Occurrences (all): 0
[3]
  Subjects with TEAE leading to study discontinuation: one
  Subjects with fatal outcome TEAE: no fatal outcome TEAEs
  Subjects with one or more TEAE: 16 subjects
  Subjects with one or more related TEAE: Ten
  Subjects with one or more serious TEAE: 11 subjects
  Subjects with serious related TEAEs: no subjects
[4]
  Subjects with TEAE leading to study discontinuation: one
  Subjects with fatal outcome TEAE: One
  Subjects with one or more TEAE: 10 subjects
  Subjects with one or more related TEAE: Four
  Subjects with one or more serious TEAE: 6 subjects
  Subjects with serious related TEAEs: no subjects
In vivo
  Respiratory syncytial virus infection, Occurrences (all): 0
  Respiratory syncytial virus infection, Subjects Affected/Exposed: 0/10 (0.00%)
  Rhinovirus infection, Occurrences (all): 0
  Rhinovirus infection, Subjects Affected/Exposed: 0/10 (0.00%)
  Serious AE Respiratory syncytial virus infection: Occurrences causally related to treatment/all: 0/0
  Serious AE Respiratory syncytial virus infection: Subjects Affected/Exposed: 0/10 (0.00%)
  Serious AE Rhinovirus infection: Occurrences causally related to treatment/all: 0/1
  Serious AE Rhinovirus infection: Subjects Affected/Exposed: 1/10 (10.00%)
